From patent US20090149412A1, “Method for Inhibition of Phospholamban Activity for the Treatment of Cardiac Disease and Heart Failure” (THE REGENTS OF THE UNIVERSITY OF CALIFORNIA, priority 1999, published 2009)
Values joined by “and” are separate entries in the source; they are usually repeats but may differ in a detail not shown here. Equal entries are not always repeated.

Legend:
Type in all cases: cell-based
[1] = tested on: PLB protein; assay: Western blot quantification of PLB protein content in myocytes infected with adenovirus transgenes; conditions: normalized to a-actin, compared with adenovirus/SR control lacking the transgene
Text: FIG. 6a is a Western blot analysis of myocytes containing the adenovirus transgenes expressing sense PLB (sPLB), antisense PLB (asPLB), E2A, R14E, S16N, and K3E/R14E against monoclonal PLB. FIG. 6b is a Western blot showing the results of cell infectivity by PLB, sPLB and K3E/R14E. FIG. 6c illustrates the Western blot analysis of PLB infectivity of So18 cells.
Additional Western blot analysis of myocytes containing the adenovirus transgenes expressing sense PLB (sPLB), antisense PLB (asPLB), E2A, R14E, S1.6N, and K3E/R14E against monoclonal PLB antibody (Affinity BioReagents) is shown in FIG. 6a. […] In contrast, asPLB and S16N results in 54% and 33% decrease in PLB protein content within the myocytes. The introduction of K3E/R14E transgene infection of myocytes leads to a formation of a distinct pattern of pentamer PLB. Multiple PLB bands appear in addition to PLB5 (the pentamer).

[2] = tested on: isolated mouse cardiomyocytes; assay: Contraction cycle of isolated mouse cardiomyocytes with penetratin-PLB peptide; conditions: 10 μM peptide; for Maximum Contract. / Minimum Contract.: arbitrary unit of length, single samples 1-7 and Mean; for Relax. Slope: control mean 0.9814
Text: Cell level studies were done to evaluate the ability of two penetratin-based peptides, two mutant PLB-penetratin peptides, and two multiple antigen peptides (MAP) to strengthen the contraction cycle of isolated mouse cardiomyocytes. The two penetratin-based peptides include PLB-ANT (Seq. ID. No. 10) and TAT-PLB (Seq. ID. No. 11) each of which have a 20 residue portion of the PLB sequence attached to either the 5′ end of ANT (Seq. ID. No. 14) or the 3′ end of TAT (Seq. ID. No. 15). The two mutant PLB peptides, mutant PLB-ANT (Seq. ID. No. 12) and TAT-mutant PLB (Seq. ID No. 13), display a S16E mutation of the 20 residue PLB sequence. The multiple antigen peptides include MAP with 8 penetratin (ANT) domains and MAP with 4 penetratin domains and 4 PLB domains.
Each of the penetratin-PLB peptides were evaluated to measure their ability to strengthen the contraction cycle of isolated mouse cardiomyocytes, the idea being that the penetratin-PLB peptide would act as a dominant negative inhibitor of the PLE3-SERCA2a interaction.
Measurements were taken every 20 milliseconds, and the unit of length was arbitrary, but was generally on the order of one complete cell length. Percent contraction was calculated as (maximum length minus minimum length) divided by maximum length. A plot of time versus length generated a U-shaped curve from which the most linear segments were selected, with the left side of the “U” representing contraction and the right side representing relaxation.

[3] = tested on: SR Ca2+ transport; assay: Radioactive Ca2+ transport assay (SR Ca2+ transport); conditions: adenoviral vector expressing contractilin, rat cardiomyocytes
Procedure: The amplified and purified hypervariable region RNA is then fused to a single cDNA (Seq. ID. No. 9) and subsequently cloned in frame into a plasmid vector, coding for a phage surface protein. Using standard phage display technique, phages which express the immune library of the chicken are selected by their positive response to the PLB peptide. After a series of enrichment for phages which specifically bind PLB, 20 clones are selected for ELISA. The resulting 5 best binders are then analyzed using a radioactive Ca^2+ transport assay. The two best activators of SR Ca^2+ transport are further analyzed. Both clones are found to dramatically stimulate the rate of Ca^2+ transport into the SR.

Molecule: E2A: adenoviral single point mutation of PLB, Seq. ID. No. 3 (MAKVQYLTRSAIRRASTIEMPQQARQKLQNLFINFCLILICLLLICIIVMLL; adenoviral vector; listed as Homo sapiens)
- increase in PLB protein level [1]: 72%

Molecule: R14E: adenoviral single point mutation of PLB, Seq. ID. No. 4 (MEKVQYLTRSAIREASTIEMPQQARQKLQNLFINFCLILICLLLICIIVMLL; adenoviral vector; listed as Homo sapiens)
- increase in PLB protein level [1]: 57%

Molecule: TAT-PLB: 20 residue portion of the PLB sequence attached to the 3′ end of TAT, Seq. ID. No. 11 (GGGGYGRKKRRQRRRMEKVQYLTRSAIRRASTIEM; listed as Homo sapiens)
- effect on myocyte contraction (overall) ([2]; T-test, no statistical difference): trend towards a larger, faster contraction
- Maximum Contract. [2]: 112.57 and 109.68 and 133.82 and 81.61 and 74.423 and 126.89 and 133.61
- Minimum Contract. [2]: 101.17 and 102.00 and 116.32 and 67.871 and 64.629 and 108.38 and 128.21
- Maximum Contract. ([2]; mean): 110.373
- Minimum Contract. ([2]; mean): 98.363
- Relax. Slope [2]: 0.9925 and 0.9790 and 0.9878 and 0.9697 and 0.9933 and 0.9939 and 0.9959
- Relax. Slope ([2]; mean): 0.9874

B1: contractilin: recombinant protein from chicken polyclonal PLB antibody hypervariable regions, expressed from adenoviral vector (Seq. ID. No. 9) (protein, listed as Homo sapiens)
chain: MHHHHHHVAQAALTHSSSVSANPGETVKITCSGGGNYAGSYYYGWFQQKSPGSAPVTVIYSNDQRPSNIPSRFSGSTSGSTSTLTITGVRAEDEAVYFCGSNSGTGYVGIFGAGTTLTVLGQSSRSSTVTLDESGGGLQTPGGALSLVCRASGFTFSRFHMMWVRQAPGKGLEWVAGIDDGGSFTLYGAAVKGRATILRDNGQSTVRLQLDNLRPEDTATYFCVKTKCGGNGWCGADRIDAWGHGTEVIVSSTSGQAGQYPYDVPDYAS
- cytoplasmic Ca2+ removal [3]: accelerates cytoplasmic Ca^2+ removal
